The values that follow are results of earlier work, collected in US20200221696A1, “ACTIVE […] FORMULATION FOR I[…] AND OBTAINED PAINT” (priority 2018, published 2020).

Entries after “also recorded” stand apart in the source; their conditions may differ. Like-named read-outs stand apart in the source and are kept apart here.

The conditions of this data set: aqueous medium; for Decomposition time (Mean life): stability in words: pH.

Regarding `CC(COc1ccc(Oc2ccccc2)cc1)Oc1ccccn1` (centres unmarked) [Pyriproxifen], the “Decomposition time (Mean life): stability in words” value (“Decomposition time … in words” for short) is “Stable in pH between 4 and 9”.

In the case of `C=CCC1=C(C)C(OC(=O)C2C(C=C(C)C)C2(C)C)CC1=O` [D-allethrin], the “Decomposition time … in words” value is recorded as “Stable at pH 5 after 31 days”. Moreover, under “pH 7”, the “Decomposition time (Mean life)” value is 500 days. For the same compound, for the setting “pH 9”, the “Decomposition time (Mean life)” value was “(4.3 days)”.

With `CCOP(=S)(OCC)Oc1nc(Cl)c(Cl)cc1Cl` [Chlorpyrifos], the “Decomposition time … in words” value was “Stable in neutral and slightly acid”. Moreover, the “Decomposition time (Mean life)” value (pH 10) is listed as 7 days.

For the compound `CCN(CC)c1nc(C)cc(OP(=S)(OC)OC)n1` [Pirimiphos-methyl], the “Decomposition time (Mean life)” value (pH 5) is recorded as 7 days and the “Decomposition time (Mean life)” value (pH 8) is 5 days.

Take `O=C(NC(=O)c1c(F)cccc1F)Nc1ccc(Cl)cc1` [Diflubenzuron]: the “Decomposition time … in words” value was “Stable in a pH range from 5 to 7; also recorded: Hydrolyzed at pH 9”.

In the case of `CC1(C)[C@H](C(=O)O[C@H](C#N)c2cccc(Oc3ccccc3)c2)[C@@H]1C=C(Br)Br` [Deltamethrin], the “Decomposition time … in words” value is given as “more stable in medium acid solutions”. Also, the “Decomposition time (Mean life)” value (pH 7) was 0.33 days.

Consider `CCOC(=O)CC(SP(=S)(OC)OC)C(=O)OCC` (centres unmarked) [Malathion], for which the “Decomposition time … in words” value is recorded as “Quickly hydrolyzed at pH over 7. The optimal pH”.

In the case of `CC1(C)C(C=C(Cl)Cl)C1C(=O)OCc1cccc(Oc2ccccc2)c1` (centres unmarked) [Permethrin], the “Decomposition time … in words” value is “Stable at pH between 5 and 6”.

`CCOP(=S)(OCC)Oc1cc(C)nc(C(C)C)n1` [Diazinon]: the “Decomposition time (Mean life)” value was 31 days (pH 5), 185 days (pH 7.5) and 136 days (pH 9).

With `CC1(C)C(C=C(Cl)Cl)C1C(=O)OC(C#N)c1cccc(Oc2ccccc2)c1` (centres unmarked) [Cypermethrin], the “Decomposition time (Mean life)” value (pH 9) is 7 days.
